From US4624953A, “1-piperazinocarboxylates and pharmaceutical compositions containing them” (priority 1981, dated 1986)
Read-outs that look alike come from different tables or passages of the source.

Assays:
[1] = system: isolation-induced aggressive behaviour; experiment: Isolation-induced aggressive behaviour test; assay type: in vivo, male NMRI mice; conditions: Mus musculus, sc, read-out: ED50, isolation induced aggressive behaviour
From the text: Male mice subjected to prolonged isolation develop aggressive behaviour against each other when paired (Yen, C. Y. et al., Arch. Int. Pharmacodyn. 123, 179, (1959); Valzelli, L., Adv. Pharmacol. 5, 79 (1967)). […] The clinical correlation of this test indicates tranquillizing and anxiolytic activities as well as antiaggressive properties as such (Duncan, R. L. et al., J. Med. Chem. 13, 1 (1970)).
This type of aggression is interesting because it is known that this kind of emotional behaviour might be located in limbic structures in the brain (MacLean, P. D., Psychosom. Med. 11, 338 (1949)).
Every week male NMRI mice, weighing 20-22 g, were isolated in Makrolon cages for three weeks with diet and water ad libitum. A piece of cardboard was placed between the cages to prevent visual contact.
To test aggressiveness the mice were paired in a neutral area, a beaker (14 cm high and diameter 14 cm). A pair is considered aggressive if both the animals show clear signs of fighting within 5 min. This fighting is characterized by biting and vocalization. As soon as fighting is seen, the mice are separated and brought to their home cage. […] Animals showing no aggression are discarded. […] The test substance is administered s.c. (0.2-0.4 ml/20 g). The mice are paired 0.5 h after the injection for trials of 5 min. duration.
The ED50 -value (mg/kg) reported is the dose inhibiting aggressive behaviour among 50 percent of the pairs 0.5 hour after drug administration.

[2] = system: isolation-induced aggressive behaviour; conditions: background statement on clinically used drugs; cited from earlier work
[3] = system: conditioned avoidance response; experiment: Conditioned avoidance response (CAR), shuttle box; assay type: in vivo, female rats; conditions: Rattus norvegicus, sc
Method: The effect of the test compounds on CAR was evaluated in a shuttle box, manufactured by Ugo Basile, Italy. The female rats, weighing 150 g, were trained to avoid an electric shock (unconditioned stimulus--US) by escaping from one compartment to the other when the light from a 15 W lamp switched on (conditions stimulus--CS). When they responded to the CS, a conditioned response (CR) was considered to have been elicited.
Rats showing a stable CR of more than 80% after a three weeks' training program were used in the experiments. Groups of six rats were subcutaneously administered with various doses of the test compounds. 11/2 and 4 hours after the administration each rat was placed in the experimental box and the effect on CR was evaluated.
The mechanisms regulating conditioned responses are very complex. Both catecholaminergic and hormonal factors are of importance. [drawing 13]

[4] = 0.5 h after administration, dose inhibiting aggressive behaviour among 50 percent of the pairs
[5] = 1.5 hr after administration, dose inhibiting CR in 50% of the animals, read-out: ED50, conditioned avoidance behaviour, 1.5 hr
[6] = 4 hr after administration, dose inhibiting CR in 50% of the animals, read-out: ED50, conditioned avoidance behaviour, 4 hr

Compound | ED50 [1, 4] [mg/kg] | ED50 [3, 5] [mg/kg] | ED50 [3, 6] [mg/kg] | also measured
CN(C)CCC=C1c2ccccc2CCc2ccccc21 [Amitriptyline] | 5 | – | – | –
CN1C(=O)CN=C(c2ccccc2)c2cc(Cl)ccc21 [Diazepam] | – | – | – | activity on isolation-induced aggressive behaviour (in words) [2]: active on this kind of aggressive behaviour
CSc1ccc2c(c1)N(CCC1CCCCN1C)c1ccccc1S2 (centres unmarked) [Thioridazine] | 5 | 41 | 40 | –
CN(C)CCCN1c2ccccc2Sc2ccc(Cl)cc21 [Chlorpromazine] | – | – | – | ED50 ([1]; 0.5 h): 1.4 mg/kg; ED50 ([3]; 1.5 h, read-out: ED50, conditioned avoidance behaviour, 1.5 hr): 3.5 mg/kg; ED50 ([3]; 4 h, read-out: ED50, conditioned avoidance behaviour, 4 hr): 5.2 mg/kg
COC(=O)N1CCN(CCCC(c2ccc(F)cc2)c2ccc(F)cc2)CC1.Cl [I (a), 1-Carbomethoxy-4-[4,4-bis(p-fluorophenyl)butyl]piperazine hydrochloride] | 6 | 45 | 12 | –
